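Grown in 96-well plates, cells were treated for 48 hours with each compound at five concentrations. Insufficient inhibition: endpoint recorded as highest concentration tested. GI50 marks 50% less growth. TGI marks complete inhibition of growth.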

18 compounds from PubChem BioAssay (NCI) can be followed below.

Assay in all cases: NCI tumour cell line growth inhibition, 48 h
The test system of assay [1] is DU-145 prostate.
The test system of assay [2] is SN12C renal.
Assay [3] has as its system EKVX NSCLC.
The subject of assay [4] is T-47D breast.
Assay [5] concerns OVCAR-3 ovarian.
Assay [6] concerns SNB-75 CNS.
Assay [7] has as its system HOP-92 NSCLC.
Assay [8] relates to MDA-MB-231 breast.
Assay [9] deals with UO-31 renal.
Assay [10] concerns A549 NSCLC.

With `CC1=CC2C(C(C)C)CC1C1C(=O)OC(=O)C21` (stereo not given), the TGI in assay [1] was greater than 100 µM; in [2], greater than 100 µM; in assay [3], greater than 100 µM; in assay [4], greater than 100 µM; in [5], 58.8 µM; in assay [6], greater than 100 µM. Besides, the TGI in assay [7], in assay [8], in [9] and in assay [10] was greater than 100 µM in each case.

As for `C[n+]1ccc(-c2c3nc(c(-c4ccc5c(ccc[n+]5C)c4)c4ccc([nH]4)c(-c4cc[n+](C)cc4)c4nc(c(-c5ccc6c(ccc[n+]6C)c5)c5ccc2[nH]5)C=C4)C=C3)cc1`, the GI50 in assay [1] was 30.7 µM; in assay [2], greater than 50 µM; in assay [3] it was greater than 50 µM; in assay [4], 12.4 µM; in [5], 7.91 µM; in assay [6], 5.09 µM. Moreover, the GI50 is 25.1 µM in assay [7], 16.3 µM in assay [8], 19.9 µM in assay [9] and 38.1 µM in assay [10]. The TGI was greater than 50 µM in [1]; greater than 50 µM in assay [2]; greater than 50 µM in [3]; 48.7 µM in [4]; 40.5 µM in assay [5]; 26.1 µM in [6]. Besides, the TGI in [7], in assay [8], in assay [9] and in [10] was greater than 50 µM throughout.

With `CC(C)[C@@H]1CC[C@@H]2[C@@H]1[C@H](OC(=O)/C=C/c1ccccc1)[C@]1(C(C)C)C[C@@H](OC(=O)CO)[C@@]2(C)O1`, the GI50 was 7.02 µM in assay [1]; 3.39 µM in assay [2]; 4.34 µM in assay [3]; 5.27 µM in assay [4]; 6.69 µM in [5]; 3.46 µM in assay [6]. For the same compound, the GI50 in assay [7] is 4.34 µM; in assay [8], 5.38 µM; in [9], 0.011 µM; in assay [10], 6.61 µM. The TGI in [1] amounted to 13.4 µM; in assay [2], 8.04 µM; in assay [3] it was 8.8 µM; in assay [4], 12.5 µM; in [5], 11.9 µM; in assay [6], 8.5 µM. The TGI in [7] came to 8.88 µM; in assay [8], 10.4 µM; in assay [9], 0.0857 µM; in [10], 14.4 µM.

Regarding `CCCCCCCCCC(CCCC(O)CC(=O)O)OC1OC(COC2OC(C)C(O)C(O)C2O)C(O)C(O)C1OC1OC(CO)C(O)C(O)C1OC1OC(C)C(O)C(O)C1O` (stereo not given), the GI50 in [1], in assay [2], in assay [3], in assay [4], in [5] and in assay [6] was greater than 40 µM in each case. Also, the GI50 in assay [7], in assay [8], in [9] and in [10] was greater than 40 µM each time. Besides, the TGI in [1], in assay [2], in [3], in [4], in [5] and in assay [6] was greater than 40 µM each time. For the same compound, the TGI in [7], in assay [8], in assay [9] and in assay [10] was greater than 40 µM throughout.

Take `O=C(CCl)Nc1ccc2c(c1)C(=O)c1ccc(NC(=O)CCl)cc1C2=O`: the GI50 in assay [1] was 1.41 µM; in [2], 0.35 µM; in assay [4] it was 1.22 µM; in [5] it was 0.277 µM; in assay [6] it was 1.01 µM; in [7] it was 1.13 µM. The GI50 in [8] was 0.486 µM; in assay [9] it was 0.449 µM; in assay [10], 2.79 µM. The TGI in assay [1] was found to be 3.45 µM; in assay [2], 1.76 µM; in assay [4] it was 3.95 µM; in assay [5], 0.885 µM; in assay [6], 2.22 µM; in assay [7] it was 2.61 µM. Besides, the TGI in [8] was 2.36 µM; in assay [9] it was 1.88 µM; in assay [10] it was greater than 100 µM.

Turning to `CN1CCCCC1CCN1c2ccccc2Sc2ccc(S(C)=O)cc21` (stereo not given), the TGI in [1], in assay [2], in [3], in assay [4], in assay [5] and in [6] was greater than 100 µM throughout. Further, the TGI in [7], in [8] and in [10] was greater than 100 µM throughout.

For the compound `Cc1nc2cc(N)c(Cl)cc2[nH]1`, the TGI in [1], in [2], in assay [3], in [4], in [5] and in [6] was greater than 100 µM each time. The TGI in assay [8], in assay [9] and in [10] was greater than 100 µM throughout.

Regarding `CCN1CCN(C(=O)[C@]23CCC(C)(C)C[C@@H]2C2=CC[C@@H]4[C@@]5(C)C/C(=C/c6cccnc6)C(=O)C(C)(C)[C@@H]5CC[C@@]4(C)[C@]2(C)CC3)CC1`, the GI50 is 1.83 µM in assay [1]; 1.22 µM in [2]; 1.9 µM in assay [3]; 2.61 µM in assay [4]; 1.51 µM in assay [5]; 1.06 µM in assay [7]. Further, the GI50 in [8] was 1.4 µM; in assay [9] it was 1.35 µM; in [10] it was 2.62 µM. The TGI in assay [1] amounted to 3.88 µM; in assay [2], 2.54 µM; in assay [3], 6.48 µM; in assay [4], 13.7 µM; in [5] it was 2.95 µM; in assay [7], 3.26 µM. For the same compound, the TGI in [8] stood at 2.84 µM; in [9], 2.67 µM; in assay [10] it was 13.4 µM.

With `C[C@@]1(N2C(=O)OC[C@@H]2c2ccccc2)C(=O)N([C@H](CC(=O)N2CCC(N3CCCCC3)CC2)C(=O)NCc2cccc(C(F)(F)F)c2)[C@@H]1/C=C/c1ccccc1`, the GI50 in assay [1] is 2.79 µM; in assay [2], 2 µM; in assay [3], 1.56 µM; in assay [4], 1.77 µM; in assay [5], 1.85 µM; in [6], 1.28 µM. Besides, the GI50 in [8] is 2.07 µM; in assay [9], 1.79 µM; in assay [10], 2.06 µM. For the same compound, the TGI was 8.47 µM in assay [1]; 4.31 µM in [2]; 3.69 µM in assay [3]; 3.53 µM in assay [4]; 3.91 µM in assay [5]; 2.95 µM in assay [6]. Moreover, the TGI stood at 4.03 µM in [8], 3.52 µM in assay [9] and 4.23 µM in assay [10].

For the compound `Nc1c(C(=O)Nc2ccccc2)sc2nc3c(cc12)CCCC3`, the GI50 was 1.67 µM in [1]; 1.23 µM in assay [2]; 0.918 µM in assay [4]; 0.481 µM in [5]; 0.551 µM in [6]; 0.509 µM in assay [7]. Besides, the GI50 in assay [8] was 3.93 µM; in assay [9] it was 1.48 µM; in assay [10] it was 0.546 µM. Moreover, the TGI in [1] was greater than 58.9 µM; in assay [2] it was greater than 100 µM; in [4] it was greater than 63.2 µM; in assay [5], 12.3 µM; in assay [6], 40.8 µM; in assay [7], greater than 100 µM. Further, the TGI in assay [8] is greater than 100 µM; in assay [9], greater than 100 µM; in assay [10], 39.4 µM.

Consider `COc1ccc(CC2C3=C(CCCC3)CCN2C)cc1` (stereo not given), for which the TGI in assay [1], in [2], in assay [3], in assay [4], in assay [5] and in assay [6] was greater than 100 µM each time. Also, the TGI in [8], in assay [9] and in [10] was greater than 100 µM in each case.

For `Cc1ccc(S(=O)(=O)n2cc(-c3nnnn3-c3ccc(Cl)cc3)c(=O)c3ccccc32)cc1`, the GI50 in assay [1] was greater than 100 µM; in [2] it was greater than 100 µM; in assay [3], greater than 100 µM; in assay [4], 57.9 µM; in [5], greater than 100 µM; in [6], 39.6 µM. The GI50 is greater than 100 µM in assay [8], 52.5 µM in [9] and 76.3 µM in assay [10]. For the same compound, the TGI in assay [1], in [2], in [3], in [4], in assay [5] and in assay [6] was greater than 100 µM throughout. In addition, the TGI in [8], in [9] and in assay [10] was greater than 100 µM each time.

As for `CCc1ccc(Nc2cc(C)nc3nc(C)nn23)cc1`, the GI50 in assay [1] is 35.1 µM; in assay [2], 46.1 µM; in [4], 21.3 µM; in assay [5], 37.8 µM; in assay [6] it was 35.6 µM; in assay [7], 28.9 µM. Also, the GI50 was 31.4 µM in assay [8], 23.6 µM in assay [9] and 45.4 µM in [10]. The TGI in [1], in [2], in [4], in [5], in [6] and in assay [7] was greater than 100 µM each time. For the same compound, the TGI in assay [8], in [9] and in assay [10] was greater than 100 µM each time.

`O=[N+]([O-])c1ccc(-c2cn(-c3ccc(Cl)cc3)cn2)cc1`: the TGI in assay [1] was greater than 100 µM; in [2] it was greater than 100 µM; in [3] it was greater than 100 µM; in assay [4] it was greater than 100 µM; in assay [5], 35.3 µM; in assay [6], 35.2 µM. Also, the TGI in [8], in [9] and in assay [10] was greater than 100 µM each time.

On to `O=C1C(Cl)=C(Nc2cccc(O)c2)C(=O)N1c1cccc(Cl)c1Cl`, for which the GI50 is 22.7 µM in assay [1]; 14.5 µM in assay [2]; 49.6 µM in assay [3]; 16.8 µM in assay [4]; 0.262 µM in assay [7]; 12.3 µM in [8]. Also, the GI50 is 23.3 µM in assay [9] and 15 µM in assay [10]. Also, the TGI is 48 µM in [1]; 28.2 µM in assay [2]; greater than 100 µM in assay [3]; 86.3 µM in assay [4]; 5.91 µM in assay [7]; 34.2 µM in [8]. Further, the TGI in assay [9] was greater than 100 µM; in assay [10] it was 45.9 µM.

For `CC([O-])C(=O)[O-].NCC1CCC1CN.[Pt+4]` (stereo not given), the GI50 in [1], in assay [2], in assay [3], in assay [4], in assay [5] and in assay [6] was greater than 10 µM each time. Further, the GI50 in assay [7], in assay [8] and in assay [10] was greater than 10 µM throughout. In addition, the TGI in assay [1], in assay [2], in assay [3], in [4], in assay [5] and in assay [6] was greater than 10 µM throughout. Moreover, the TGI in assay [7], in assay [8] and in assay [10] was greater than 10 µM in each case.

On to `COc1ccc(Cn2c(Br)c3c(c2-c2cc(OC)c(OC)c(OC)c2)CCc2sc(NC(C)=O)nc2-3)cc1`, for which the GI50 in assay [1] was 4.44 µM; in assay [2], 4.99 µM; in [4], 4.65 µM; in assay [5], 3.63 µM; in [6], 1.82 µM; in assay [7], 1.88 µM. Besides, the GI50 in [8] was 3.22 µM; in assay [9] it was 3.69 µM; in assay [10], 3.92 µM. Also, the TGI was greater than 100 µM in assay [1]; greater than 100 µM in assay [2]; greater than 100 µM in assay [4]; greater than 100 µM in [5]; greater than 100 µM in [6]; 9.64 µM in assay [7]. Besides, the TGI in assay [8] is 43.6 µM; in assay [9] it was 35.1 µM; in assay [10], greater than 100 µM.

On to `COC(=O)C1C2CCCN2OC1(C)CO` (stereo not given), for which the TGI in [1], in assay [2], in assay [3], in [4], in assay [5] and in assay [6] was greater than 100 µM in each case. Besides, the TGI in assay [8], in assay [9] and in assay [10] was greater than 100 µM in each case.
